Where two headings read alike, the source gives them in different places.

In one data set the target is stripped hemoglobin (Homo sapiens, UniProt P68871). The note with it: cited from earlier work.
Another data set deals with C57BL/6 mice. As to the kind of experiment: Tolerability of intraperitoneal injection in mice. The data set is classed as in vivo. The note with it: concentration of (up to) 120 mM.
For another data set, the target named is porcine hemoglobin (Sus scrofa, UniProt P02067). The experiment in a line: In vitro P50 of porcine free hemoglobin with effector. In kind it is biochemical, pig. The note with it: porcine free hemoglobin 2.5 mM, effector 2.5 mM, 1:1; for P50 mm Hg: control 20.4, 19.9. The procedure: (§1) Two further effectors, kf133 and kf137, were tested in vitro for P50 shifts with porcine hemoglobin and whole blood. The compounds were well soluble. As usual, pH was adjusted to ˜7.0 and effector solution (2.5 mM) and hemoglobin (2.5 mM) were mixed at a 1:1 ratio. Whole blood and the effector solution were mixed at iso-osmolarity at pH=7. P50 values were measured as described in the previous experiments.
Sequence of porcine hemoglobin (P01965 whole entry partner): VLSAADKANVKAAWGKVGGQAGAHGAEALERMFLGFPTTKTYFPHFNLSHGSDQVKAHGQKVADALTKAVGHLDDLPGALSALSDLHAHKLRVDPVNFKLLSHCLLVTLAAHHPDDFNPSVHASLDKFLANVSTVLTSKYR
Sequence of porcine hemoglobin (P02067 2-147 limits assumed): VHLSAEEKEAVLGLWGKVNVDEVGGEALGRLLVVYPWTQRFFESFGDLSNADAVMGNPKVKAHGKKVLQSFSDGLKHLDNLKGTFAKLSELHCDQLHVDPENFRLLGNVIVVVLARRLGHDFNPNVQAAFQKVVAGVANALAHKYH

The next data set concerns porcine whole blood. The experiment in a line: In vitro P50 of porcine whole blood with effector (iso-osmolar). The note with it: for P50 mm Hg: control 33.5. The data set is classed as cell-based, pig. The procedure:
as §1

Data set [1] is described as follows: Solubility of effector solutions. In kind it is physicochemical. Particulars: pH ~7.0. The procedure: as §1
In another data set the test system is circulating RBC. The experiment in a line: P50 shift of circulating RBC after (intraperitoneal) injection in mice. The note with it: maximum; for shift in the Hb-O2 dissociation curve: IP injection.
Another data set relates to baker's yeast. In kind it is in vitro ADME. Particulars: pH 4.6. The procedure: ITPP was dissolved in a buffer solution of a pH 4.6 and heated in the presence of baker's yeast for 12 h at 45° C. Non selective hydrolysis of approximately 25% occurred.
A short description of data set [2]: 1-octanol/water partition coefficient Kow. In kind it is physicochemical. The note with it: after equilibration at 30 mM. The procedure: Partition coefficients relate to the distribution of a solute between two immiscible liquid phases and are defined as the ratios of concentrations (or molar fraction) of the distributed solute.
The partition coefficients for our compounds, Kow=[ITPP]1-octanol/[ITPP]water, were measured after equilibration at a concentration of 30 mM, close to the typical concentration employed for biological evaluations.

Data set [3] can be described thus: Toxicity, general statements on the biological experiments. In kind it is in vivo. The note with it: general statement.
The nature of data set [4]: Chemical hydrolysis of IHP-pyrophosphate at alkaline pH (31P-NMR). The data set is classed as physicochemical. The procedure: Experiments designed to test IHP-pyrophosphate's resistance to chemical hydrolysis were conducted. ITPP N,N-dimethyl-cyclohexylammonium salt solutions were adjusted at pH 8.66, 10.20, 12.05 and 13.30. In order to avoid any damage to the NMR tubes due to the highly alkaline solutions, all samples were checked using ^31P-NMR at different time intervals against an external Ph3PO/DMSO solution. This method also avoided concentrating the samples and redissolving them in a deuterated solvent, which may have led to changes in the results. […] Observing this stability, we exposed the pH=13.30 sample to heat at 60° C. for 6 h. […] After 22 h at the same temperature, hydrolysis was only 19%. Facing this extreme stability to chemical hydrolysis we concentrated to dryness both solutions of pH 10.20 and 13.30 and dissolved them in D2O.

Another data set relates to human whole blood. As to the kind of experiment: In vitro P50 in whole blood after incubation with effector. In kind it is cell-based. Particulars: effector 60 mM. The procedure: (§2) As usual, pH's for the compound-solutions were adjusted to ˜7.0, osmolarities for both solutions were determined (325-373 mOsM) prior to effectors, and whole blood volumes at 1:1 ratios were incubated.

The next data set concerns mouse whole blood. Described as above. In kind it is cell-based. Particulars: effector 60 mM. The procedure:
as §2

The next data set deals with pig whole blood. The data set is described as above. The data set is classed as cell-based. The note with it: effector 60 mM. The procedure:
as §2

The next data set has as its system whole blood. The experiment in a line: In vitro incubation of whole blood of three species, summary statements. In kind it is cell-based, human, mouse and pig. Particulars: whole blood of human, mouse and pig, 60 mM. The procedure: as §2
Setting [5] is: porcine whole blood, iso-osmolarity, pH=7.

Sequence of stripped hemoglobin (P69905 2-142 partner limits assumed): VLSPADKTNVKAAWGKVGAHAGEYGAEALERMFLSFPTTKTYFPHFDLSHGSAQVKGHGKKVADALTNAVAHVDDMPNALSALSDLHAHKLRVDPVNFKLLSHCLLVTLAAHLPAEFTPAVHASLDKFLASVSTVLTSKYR
Sequence of stripped hemoglobin (P68871 2-147 limits assumed): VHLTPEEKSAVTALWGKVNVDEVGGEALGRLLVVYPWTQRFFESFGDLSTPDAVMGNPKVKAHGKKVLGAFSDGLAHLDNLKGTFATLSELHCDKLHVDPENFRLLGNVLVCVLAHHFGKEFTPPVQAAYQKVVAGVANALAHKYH

`O=C(O)[C@@H](COP(=O)(O)O)OP(=O)(O)O` [2,3-Diphosphoglycerate, 2,3-diphosph-D-glyceric acid]: the “O2 half-saturation pressure P(O2)(½) of stripped hemoglobin” value was 12.0 mm Hg on stripped hemoglobin (pH 7.4, 25° C.) and 23.7 mm Hg at stripped hemoglobin (pH 7.4, 37° C.).
In the case of Hexanoy-IHP NN-DMCHA salt [kf137], the tolerability in mice result in the data set on C57BL/6 mice was “well tolerated”. At porcine hemoglobin, the “P50 Increase %” value was 120%. Further, the entries for the “P50 mm Hg” value at porcine hemoglobin and with porcine whole blood (setting [5]) were 45.1 mm Hg and 51.5 mm Hg, respectively. Further, in the data set on porcine whole blood (porcine whole blood in vitro), the “lysis of the RBC” value is “Noticeable lysis”. Besides, in data set [1], the “solubility” value is “well soluble”.
Consider “IHP Cholesteryoxy Carbonyl Hepta N,N-Dimethyl Cyclohexyl Ammonium Salt [kf16.4]”, for which, in the data set on circulating RBC (ip, 6 animals), the “right shift in the P50” value was “up to 18%”.
With `O=P1(O)OC2C3OP(=O)(O)OP(=O)(O)OC3C3OP(=O)(O)OP(=O)(O)OC3C2OP(=O)(O)O1` (stereo not shown) [ITPP, inositol tripyrophosphate], the “non selective enzymatic hydrolysis” value in the data set with baker's yeast is “approximately 25%”.
As for `NC1CCCCCC1.NC1CCCCCC1.NC1CCCCCC1.NC1CCCCCC1.NC1CCCCCC1.NC1CCCCCC1.O=P1(O)OC2C3OP(=O)(O)OP(=O)(O)OC3C3OP(=O)(O)OP(=O)(O)OC3C2OP(=O)(O)O1` (stereo not shown) [cycloheptylammonium ITPP salt], in data set [2], the “Kow=[ITPP]1-octanol/[ITPP]water” value is given as 0.0121.
As to “IHP monopyrophosphate hexasodium salt [kf133]”, the tolerability in mice result in the data set on C57BL/6 mice is “well tolerated”. Moreover, at porcine hemoglobin, the “P50 Increase %” value came out at 143% and the “P50 mm Hg” value is 48.5 mm Hg. Also, in the data set on porcine whole blood (setting [5]), the “P50 Increase %” value worked out at 14.5% and the “P50 mm Hg” value worked out at 38.4 mm Hg. Further, the toxicity / tolerability result in [3] is reported as “non-toxic”. Also, the “solubility” value in data set [1] was “well soluble”.
Regarding “N,N-Dimethyl cyclohexyl ammonium Salt of Myo-inositol 1,6:2,3:4,5-Tripyrophosphate”, the “hydrolysis (changes in 31P-NMR)” value in data set [4] (pH 8.66, 10.20, 12.05, after 3 days) was “No changes were observed”. Besides, the “change after concentration to dryness” value was “remained unchanged” in data set [4] (pH 10.20, redissolved in D2O) and “completely converted to the IHP open form sodium salt” in data set [4] (pH=13.30, redissolved in D2O). Moreover, the hydrolysis stood at 13% in data set [4] (pH=13.30, 60° C. for 6 h); 19% in [4] (pH=13.30, 60° C., after 22 h); 7% in data set [4] (pH=13.3, after 3 days).
Consider `NC1CCCCCCC1.NC1CCCCCCC1.NC1CCCCCCC1.NC1CCCCCCC1.NC1CCCCCCC1.NC1CCCCCCC1.O=P1(O)OP(=O)(O)O[C@H]2[C@H](O1)[C@@H]1OP(=O)(O)OP(=O)(O)O[C@@H]1[C@H]1OP(=O)(O)OP(=O)(O)O[C@H]21` [cyclooctylammonium ITPP salt], for which the “Kow=[ITPP]1-octanol/[ITPP]water” value in data set [2] was determined as 0.462.
For “IHP Cholesteryoxy Carbonyl Hepta N,N-Dimethyl Cyclohexyl Ammonium Salt [kf96]”, the “P50 Increase %” value in the data set on human whole blood (1:1) is 27%; in the data set with mouse whole blood (1:1), 20%; in the data set with pig whole blood (1:1), 27%. The “P50 mm Hg” value in the data set with human whole blood (1:1, control 22.1) came out at 28 mm Hg; with mouse whole blood (1:1, control 36.7), 43.9 mm Hg; in the data set with pig whole blood (1:1, control 32.2), 41.1 mm Hg. Further, the “right shift in the Hb-O2 dissociation curve, all blood samples” value with whole blood came to 27%. Further, the “shift in the Hb-O2 dissociation curve” value in the data set with circulating RBC (30 mM) is given as “up to 17%”; with circulating RBC (60 mM) it was “up to 24%”.
